Experimental data taken from US8444858B2, “Control of development of biofilms in industrial process water” (A.Y. Laboratories Ltd., priority 2001, dated 2013).
Where two headings read alike, the source gives them in different places. Marks after values point to notes of the source that are not given here.

Legend:
[1] = system: mixed culture of slime-forming-bacteria which had been isolated from a paper machine; test: Formation of biofilm on stainless steel coupons in a model system (viable counts in medium and on coupons); type: cell-based
Procedure: Formation of biofilm on stainless steel coupons in the presence or absence of an oxidizing biocide or a biofilm inhibiting substance was evaluated in the laboratory. The test system consisted of (a) three closed flasks each containing 20 L nutrient-rich medium (diluted three-fold from its recommended use concentration), (b) three closed cells containing stainless steel coupons hanging freely, and (c) three identical circulation pumps, each pump connected via plastic pipes to one of the flasks and to one of the cells. The system was placed in a thermostatic room at 35° C.
An innoculum containing a mixed culture of slime-forming-bacteria which had been isolated from a paper machine was added to each of the flasks. An oxidizer containing a 5 ppm mixture (expressed as total Cl2) of bromochlorodimethylhydantoin (an oxidizing biocide which is a source of HOBr and HOCl) (hereinafter “mixed halogens”) was added to the first flask once a day for the duration of the trial (4 days). […] The third flask served as a control for the two flasks treated with the oxidizing biocide or biofilm inhibiting substances. […] A diluted solution of sodium hypochlorite in deionized (DI) water (˜8000 ppm as total chlorine) was fed with one pump; a diluted solution of ammonium bromide (12500 ppm) was fed with the second pump. The two diluted solutions were synchronously mixed in a short glass pipe to form a pre-injection solution of biofilm inhibiting substance, using a pH meter to control and check the stability of the biofilm inhibiting substance formed. The biofilm inhibiting substance was fed to the test system immediately as it was produced.
On days 2 and 4, each closed cell was opened and 2 coupons were aseptically removed from each cell. At the same time samples of the circulating medium were taken as well. Sampling was conducted after feeding the daily slug dose of biocide.
Each sample of medium was serially 10-fold diluted in sterile saline solution and plated in molten agar. Each coupon was thoroughly rinsed to remove any adhered particles, aseptically scraped, and the material removed by scraping was quantitatively dispersed in saline solution, vortexed, serially 10-fold diluted and plated in molten agar. Viable counts of microorganisms were taken after 48 h of incubation at 35° C. Viable counts of cells in the medium are presented as colony forming units (cfu) per ml; viable counts on the coupon surfaces are presented as cfu/cm^2.

biofilm = test: Waste water fouling control in a 7 km pipe, Hazen-Williams coefficient
Procedure: Treated wastewater was piped from a wastewater treatment plant to a location 7 kilometers away.
(The Hazen-Williams coefficient is used to express water flow through industrial pipes. It is calculated using the formula
[formula] wherein P is the friction pressure drop expressed in pounds per square inch per 1000 feet of pipe length, B is the flow rate in barrels per hour, s is the specific gravity of the liquid, C=a friction factor (the Hazen-Williams coefficient), and d is the internal diameter of the pipe in inches. P and B are measured for a given pipe, s and d are treated as constants, and C is calculated. The results are presented as the Hazen-Williams coefficient.
Waste water (up to 10 m^3/h) was used to appropriately dilute both chemicals. An on-line pH meter controlled the production process and the hypochlorite feeding rate to ensure the production of a stable biofilm inhibiting substance. The biofilm inhibiting substance was injected into the treated waste pipe as it was produced. Concentration of the biofilm inhibiting substance stock solution was 3000-4000 ppm; the pH was maintained at 9.5-10.

[2] = De-inking plant field trial, residual H2O2, residual biofilm inhibiting substance and H2O2 consumption
Procedure: A de-inking system had been using 7-10 kg H2O2 per ton of waste paper.
The reaction pH was Maintained at 9.8-10.0. The Production process was controlled to ensure synchronous metering of the two chemicals, continuous mixing at the predetermined molar ratio and reproducible production of a stable biofilm inhibiting substance stock solution for the duration of the trial and longer. […] After 850 minutes the dosing rate was reduced to 85 g/ton expressed as total Cl2 by feeding the biofilm inhibiting substance semi-continuously. Various parameters were monitored during start-up of the trial: Residual biofilm inhibiting substance was measured (using a Hach pocket colorimeter, total Cl2, based on the DPD method adapted from Standard Methods for Examination of Waste and Waste Water). […] When necessary, samples were diluted with DI water.

[3] = system: microorganisms, principally bacteria; details: for silo/slime formers: Plate Count agar with high excess of glucose; for silo/total count: R2A Agar
Procedure: Process water samples were drawn and immediately inactivated with sodium thiosulfate to degrade any residue of the biofilm inhibiting substance. Samples were then serially ten-fold diluted in a Trypton (DIFCO) saline dilution medium. The diluted samples were plated in molten R2A Agar (hereinafter=“total count”) and in molten Plate Count agar containing a high excess of glucose (hereinafter “slime formers”). The agar solidified at room temperature and the plates were incubated at 35° C. for 48 h.

[4] = day 1 of trial, cleaning period
[5] = day 2 of trial, cleaning period
[6] = day 3 of trial, cleaning period
[7] = day 4 of trial, cleaning period
[8] = day 6 of trial, cleaning period
[9] = day 7 of trial, cleaning period
[10] = day 8 of trial, cleaning period
[11] = day 9 of trial, cleaning period
[12] = day 10 of trial, cleaning period
[13] = day 13 of trial, cleaning period
[14] = day 16 of trial, clean paper machine
[15] = day 17 of trial, clean paper machine
[16] = day 20 of trial, clean paper machine
[17] = day 21 of trial, clean paper machine
[18] = day 24 of trial, clean paper machine
[19] = day 27 of trial, clean paper machine

In the case of “bromide activated chloramine [Fuzzicide BAC]”, the state of coupons ([1]; after 2 days) is reported as “remained clean”, the state of coupons ([1]; after 4 days) is reported as “remained clean” and the “control of planktonic microorganisms” value ([1]; medium sample after four days, within detection limits) is reported as “complete control of planktonic microorganisms”. The “Viable Counts After 2 Days, medium” value ([1]; planktonic cells in circulating medium, day 2, daily slug dose (Mixed Halogens 5 ppm, Fuzzicide BAC […] expressed as Cl2), 35° C.) was 1 × 10^6 cfu/ml, the “Viable Counts After 4 Days, medium” value ([1]; planktonic cells in circulating medium, day 4, daily slug dose (Mixed Halogens 5 ppm, Fuzzicide BAC […] expressed as Cl2)) was <100* cfu/ml and the “Viable Counts After 2 Days, coupon surfaces” value ([1]; stainless steel coupons, day 2, daily slug dose (Mixed Halogens 5 ppm, Fuzzicide BAC […] expressed as Cl2)) was <27* cfu/cm^2. For the same substance, the “Viable Counts After 4 Days, coupon surfaces” value ([1]; stainless steel coupons, day 4, daily slug dose (Mixed Halogens 5 ppm, Fuzzicide BAC […] expressed as Cl2)) was <27* Cfu/cm^2, the “Hazen-Williams coefficient (HW) maintenance” value (biofilm; 10 ppm as total chlorine for three hours once a week, over a period of months, after cleaning) was “constant value” and the “Hazen-Williams coefficient (HW)” value (biofilm; 10 ppm as total chlorine once a day for three hours for 6 consecutive days, HW before ~90) was ~104. For the same substance, the “Hazen-Williams coefficient (HW)” value (biofilm; combination of pigging and 10 ppm (as total Cl2) once a day for three hours, HW before ~104) was ~116, the “H2O2 feed rate maintaining de-inking bleaching targets” value ([2]; after a few more days of semi-continuous dosing) was ~2.2 kg/ton and the “feed rate of H2O2 needed in order to maintain bleaching set point” value ([2]; after about 48 hours of semi-continuous dosing, before trial 7-10 kg H2O2 per ton of waste paper) was ~4 kg/ton. For the same substance, the silo/slime formers [3, 4] was 1.0 × 10^1 cfu, the silo/total count [3, 4] was 1 × 10^0 cfu and the silo/slime formers [3, 5] was 5.92 × 10^3 cfu. The silo/total count [3, 5] was 5.68 × 10^4 cfu, the silo/slime formers [3, 6] was 2.0 × 10^2 cfu and the silo/total count [3, 6] was 4.8 × 10^4 cfu. The silo/slime formers [3, 7] was 1.0 × 10^0 cfu, the silo/total count [3, 7] was 7.6 × 10^3 cfu and the silo/slime formers [3, 8] was 1.2 × 10^2 cfu. The silo/total count [3, 8] was 3.8 × 10^3 cfu, the silo/slime formers [3, 9] was 1.0 × 10^0 cfu and the silo/total count [3, 9] was 4.0 × 10^3 cfu. For the same substance, the silo/slime formers [3, 10] was 4.0 × 10^1 cfu, the silo/total count [3, 10] was 1.68 × 10^3 cfu and the silo/slime formers [3, 11] was 2.2 × 10^2 cfu. For the same substance, the silo/total count [3, 11] was 5.0 × 10^3 cfu, the silo/slime formers [3, 12] was 1.0 × 10^0 cfu and the silo/total count [3, 12] was 1.18 × 10^3 cfu. The silo/slime formers [3, 13] was 1.0 × 10^1 cfu, the silo/total count [3, 13] was 2.4 × 10^3 cfu and the silo/slime formers [3, 14] was 1.0 × 10^0 cfu. The silo/total count [3, 14] was 2.0 × 10^2 cfu, the silo/slime formers [3, 15] was 1.0 × 10^0 cfu and the silo/total count [3, 15] was 6.0 × 10^1 cfu. The silo/slime formers [3, 16] was 1.0 × 10^0 cfu, the silo/total count [3, 16] was 3.0 × 10^2 cfu and the silo/slime formers [3, 17] was 1.0 × 10^0 cfu. The silo/total count [3, 17] was 7.5 × 10^2 cfu, the silo/slime formers [3, 18] was 1.0 × 10^0 cfu and the silo/total count [3, 18] was 1.0 × 10^2 cfu. For the same substance, the silo/slime formers [3, 19] was 1.0 × 10^0 cfu, the silo/total count [3, 19] was 1.1 × 10^2 cfu and the “viable counts in process water samples taken from the silo” value ([3]; initial cleaning period, irrespective of high or low residue of Fuzzicide BAC) was 10^3-10^4 viable cells per ml.
